For eleven compounds, TGI and GI50 results are on record in PubChem BioAssay (NCI).

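How tested: cells in 96-well plates exposed to compound for 48 hours at five concentrations. GI50: concentration for 50% inhibition of growth. TGI marks complete inhibition of growth.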 Where only a bound is given, the exact number is not on record here.

Some test systems named below: SF-268 CNS; NCI-H522 lung; SK-MEL-2 melanoma; HOP-62 NSCLC; HCT-116 colon; M14 melanoma; 786-0 renal; SN12C renal; RXF 393 renal.
Holding throughout (experiment): NCI-60 cell line screen, 48 h

On to `CCOC(=O)C1CCC/C1=N\N=C(N)N` (stereo not given) (tested in a mixture with another compound), for which the TGI in the test on SF-268 CNS, in the test on NCI-H522 lung, with SK-MEL-2 melanoma, in the test on HOP-62 NSCLC, in the test with HCT-116 colon and with M14 melanoma was above 100 µM in each case. Besides, the TGI in the test with 786-0 renal, in the test on SN12C renal and in the test with RXF 393 renal was above 100 µM throughout.
In the case of `O=C(CC(=O)Nc1ccc(Cl)cc1)NNCC(=O)Nc1nc(-c2ccccc2)cs1`, the TGI in the test on SF-268 CNS, with NCI-H522 lung, with HOP-62 NSCLC, in the test on HCT-116 colon, in the test with M14 melanoma and in the test with 786-0 renal was above 100 µM in each case. Besides, the TGI in the test on SN12C renal and in the test on RXF 393 renal was above 100 µM each time.
In the case of `N=C(c1ccccc1)N1CCCCC1`, the TGI with SF-268 CNS, with NCI-H522 lung, in the test with SK-MEL-2 melanoma, with HOP-62 NSCLC, with HCT-116 colon and in the test on M14 melanoma was above 100 µM in each case. Also, the TGI with 786-0 renal, with SN12C renal and in the test on RXF 393 renal was above 100 µM each time.
As for `CCNC(=O)C(O)C1(O)CCC2[C@@H]3CCC4=CC(=O)C=C[C@]4(C)C3[C@@H](O)C[C@@]21C` (stereo not given in full), the TGI in the test on SF-268 CNS is above 79.9 µM; in the test with NCI-H522 lung, above 100 µM; in the test on SK-MEL-2 melanoma, above 100 µM; in the test on HOP-62 NSCLC it was above 100 µM; in the test on HCT-116 colon, above 100 µM; in the test with M14 melanoma, above 100 µM. In addition, the TGI in the test with 786-0 renal, in the test on SN12C renal and with RXF 393 renal was above 100 µM in each case.
Take `COc1ccc2c(c1)[nH]c(=O)c1c3cccnc3cn21`: the GI50 is 0.0686 µM with SF-268 CNS; 0.0222 µM in the test on NCI-H522 lung; 0.037 µM in the test on SK-MEL-2 melanoma; 0.0666 µM in the test with HOP-62 NSCLC; 0.0496 µM with HCT-116 colon; 0.0265 µM with M14 melanoma. Besides, the GI50 in the test on 786-0 renal was 0.066 µM; with SN12C renal, 0.0802 µM; in the test on RXF 393 renal it was 0.0195 µM. Also, the TGI is 42.7 µM in the test with SF-268 CNS; 0.0682 µM in the test with NCI-H522 lung; 11.3 µM in the test with SK-MEL-2 melanoma; 37 µM in the test on HOP-62 NSCLC; 14.3 µM in the test with HCT-116 colon; 19.9 µM in the test with M14 melanoma. Moreover, the TGI in the test with 786-0 renal was 15.8 µM; in the test with SN12C renal, above 100 µM; in the test with RXF 393 renal it was 0.055 µM.
On to `COC(=O)c1nc(-c2ccc(Cl)c(Cl)c2)nc2ccccc12`, for which the TGI is above 100 µM in the test on SF-268 CNS; above 100 µM in the test on NCI-H522 lung; above 100 µM with SK-MEL-2 melanoma; 62.8 µM in the test with HOP-62 NSCLC; above 100 µM in the test on HCT-116 colon; above 100 µM in the test on M14 melanoma. Also, the results for the TGI with 786-0 renal, with SN12C renal and in the test with RXF 393 renal were 47.8 µM, above 100 µM and 42.9 µM, respectively.
`C=CCOc1cc2c(cc1C(C)c1ccc(OC)cc1)OCO2` (stereo not given): the TGI was above 74.3 µM in the test with SF-268 CNS; 0.541 µM in the test on NCI-H522 lung; above 100 µM with SK-MEL-2 melanoma; above 62.7 µM with HOP-62 NSCLC; above 47.9 µM with HCT-116 colon; above 42.8 µM in the test with M14 melanoma. Further, the TGI in the test on 786-0 renal is above 100 µM; in the test with SN12C renal, above 100 µM; in the test with RXF 393 renal, 0.485 µM.
With `[N-]=[N+]=Nc1ncc(-c2ccc(C(F)(F)F)cc2)c(NC2CCCCCC2)n1`, the GI50 with SF-268 CNS, with SK-MEL-2 melanoma, in the test with HOP-62 NSCLC, in the test on HCT-116 colon, in the test on M14 melanoma and in the test with 786-0 renal was above 10 µM in each case. Moreover, the GI50 in the test with SN12C renal and in the test on RXF 393 renal was above 10 µM throughout. Besides, the TGI with SF-268 CNS, in the test with SK-MEL-2 melanoma, in the test with HOP-62 NSCLC, in the test on HCT-116 colon, in the test on M14 melanoma and in the test on 786-0 renal was above 10 µM each time. In addition, the TGI with SN12C renal and in the test with RXF 393 renal was above 10 µM in each case.
With `CCCCCCN1C(=O)/C(=c2\sc3n(c2=O)C2C(NN=3)N(CC)C(=O)N2CC)c2ccccc21` (stereo not given), the GI50 is 1.45 µM in the test on NCI-H522 lung; 3.06 µM in the test with SK-MEL-2 melanoma; 1.71 µM in the test with HOP-62 NSCLC; 3.24 µM with M14 melanoma; 1.6 µM with 786-0 renal; 2.74 µM with SN12C renal. In addition, in the test on RXF 393 renal, the GI50 was 1.2 µM. Moreover, the TGI in the test with NCI-H522 lung, in the test with SK-MEL-2 melanoma, with HOP-62 NSCLC, in the test with M14 melanoma, in the test on 786-0 renal and in the test on SN12C renal was above 50 µM in each case. Besides, in the test on RXF 393 renal, the TGI amounted to 3.98 µM.
Consider `Cn1c2ccccc2c2c(=O)n(CCCC(=O)NCC(=O)OC(=NC3CCCCC3)NC3CCCCC3)c3c(-c4ccccc4)nnn3c21`, for which the GI50 in the test on SF-268 CNS is 15 µM; in the test on NCI-H522 lung, 15.9 µM; with SK-MEL-2 melanoma it was 33.1 µM; in the test with HOP-62 NSCLC it was 15.3 µM; in the test with HCT-116 colon, 14.3 µM; with M14 melanoma, 31.2 µM. In addition, the results for the GI50 in the test with 786-0 renal, in the test on SN12C renal and in the test on RXF 393 renal were 18.5 µM, 19.5 µM and 11.1 µM, respectively. The TGI in the test with SF-268 CNS is above 100 µM; in the test with NCI-H522 lung it was 80.4 µM; in the test with SK-MEL-2 melanoma, above 100 µM; in the test with HOP-62 NSCLC, 36.6 µM; with HCT-116 colon it was 42.7 µM; in the test on M14 melanoma it was above 100 µM. Also, the values for the TGI in the test on 786-0 renal, in the test on SN12C renal and in the test on RXF 393 renal were 45.1 µM, 50.7 µM and 36.9 µM, respectively.
Turning to `C#Cc1cccc(NC(=O)Nc2ccc(NC(=O)CCl)cc2)c1`, the GI50 in the test on SF-268 CNS was 12.7 µM; in the test with NCI-H522 lung it was 12.2 µM; with SK-MEL-2 melanoma, above 82.5 µM; with HOP-62 NSCLC it was 19 µM; in the test on HCT-116 colon, 20.1 µM; in the test with 786-0 renal, 12.5 µM. The GI50 in the test with SN12C renal was 12.7 µM; in the test with RXF 393 renal, 9.37 µM. For the same compound, the TGI in the test on SF-268 CNS was 28.5 µM; in the test with NCI-H522 lung it was 29.3 µM; in the test with SK-MEL-2 melanoma, above 82.5 µM; with HOP-62 NSCLC it was above 82.5 µM; in the test on HCT-116 colon it was above 82.5 µM; with 786-0 renal it was 23.7 µM. Further, the TGI with SN12C renal came out at 29.8 µM; in the test with RXF 393 renal, 23.2 µM.
